According to paper PMC12677607, “Identification of a Pair of Linear or Cyclic Naturally Inspired Bifunctional Lipopeptide Antibiotics That Overcome Antimicrobial Resistance” (Advanced Science, 2025):
In brackets after ≈: the same amount, converted by molar mass. Bridge positions count the residues as written; N and C are the ends. Square brackets hold non-standard residues; d marks the D form. Peptide text beside a SMILES is read from it. * marks the point of attachment. Myristoyl = CCCCCCCCCCCCCC(=O)*; Orn = NCCC[C@H](N)C(=O)O; Dab = NCC[C@H](N)C(=O)O; Dap = NC[C@H](N)C(=O)O

Assays:
S. aureus USA300 [1] = assay: Time-dependent killing assay; format: cell-based; settings: 4× MIC, time-dependent killing curve, n = 3
Protocol: Overnight cultures of S. aureus USA300 were diluted 1:10000 in LB broth and incubated for 2 h at 37 °C and 200 rpm. […] After 15, 30, 60, 120, 180, 240, 300, and 360 min, 100 µL of cell suspension were collected, serially diluted, and plated on LB agar plates. After an incubation of 16 h at 37 °C, bacterial colonies were counted. Experiments were performed three independent times (n = 3).

S. aureus USA300 [2] = assay: UDP-MurNAc-pentapeptide accumulation assay; format: cell-based; settings: 8 × MIC, 1 hr, LC-MS
Protocol: To determine the effects of aquicidine L or aquicidine C4 on bacterial cell wall biosynthesis of S. aureus USA300, the accumulation of the precursor UDP‐MurNAc‐pentapeptide was investigated in antibiotic‐treated cell cultures. 50 µL of overnight cultures were transferred to 5 mL of fresh LB broth and cultured to 0.5 of OD600 at 37 °C and 200 rpm. The cultures were treated with 130 µg/mL of chloramphenicol for 15 min at 37 °C and 200 rpm, and 128 µg/mL of aquicidine L or 32 µg/mL aquicidine C4 was added. 8 µg/mL of vancomycin and DMSO were used as positive and negative controls, respectively. After an incubation of 1 hr, the cell pellet from 0.5 mL of the cell cultures was resuspended in 30 µL of ddH2O and then boiled for 15 min. Finally, the supernatant was collected and then detected using an Agilent 1290 Series High‐Performance Liquid Chromatography (HPLC) coupled to a 6546 Series QTOF mass spectrometer equipped with an XBridge C18 column (4.6 × 150 mm, 5 µm). Solvent A = H2O (0.1% v/v formic acid) and solvent B = CH3CN (0.1% v/v formic acid) were used for HPLC analysis with 0.4 mL min^−1 of flow rate at 25 °C. Gradient conditions were as follows: t = 0‐1 min, 3% solvent B; t = 2‐7 min, 3‐95% solvent B; t = 7‐8 min, 95% solvent B; t = 8–9 min, 95‐3% solvent B; t = 9–10 min, 3% solvent B.

S. aureus USA300 [3] = assay: Membrane depolarization assay (DiSC3(5)); format: cell-based; settings: S. aureus USA300 in PBS, 4 × MIC, n = 2
Protocol: Bacterial membrane depolarization assay was performed in 384‐well black microtiter plates. Overnight cell cultures of S. aureus USA300 were collected and resuspended in PBS buffer to an OD600 of 0.5. Then, 100 µL of the diluted cell suspension and 50 µL of 20 µM DiSC3(5) dye were added to 300 µL of PBS buffer, which was incubated for 15 min at room temperature in the dark. 50 µL of 2 M KCl was then added and incubated for another 15 min. Fluorescence intensity was determined continually at 2 s intervals (Ex/Em 643/675 nm) using a Tecan spark multimode microplate reader. When the signal stabilized, the appropriate amount of aquicidine L or aquicidine C4 (6.4 mg mL^−1 in DMSO, 4 × MIC) was added. DMSO and daptomycin were used as negative and positive controls, respectively. Data were shown as the relative intensity with respect to the average fluorescence signal prior to the addition of each compound. All assays were performed two independent times (n = 2), and a representative fluorescence recording was presented.

S. aureus USA300 [4] = assay: Membrane component feeding assay; format: cell-based; settings: for inhibition of antibacterial activity by MK, UQ or PC: feeding 2 to 128 µg mL^−1, S. aureus USA300 (PC also E. coli DH5α), Figure S125
Protocol: The effects of bacterial membrane components on aquicidine L's or aquicidine C4's anti‐bacterial activities were evaluated using E. coli DH5α or S. aureus USA300. […] All experiments were done in triplicate (n = 3) and repeated two independent times (n = 2).

E. coli DH5α = assay: Bactericidal effects / cell lysis in E. coli; format: cell-based; settings: after 12 h at 16× MIC, Figure S123a
Acute toxicity assay = format: in vivo, mouse; settings: single dose 250 mg kg^−1 intraperitoneal, three mice, five days
Protocol: For acute toxicity assessment, three mice were given a single dose of aquicidine L or aquicidine C4 at 250 mg kg^−1 via intraperitoneal injection. Mice were observed twice daily for mortality and morbidity as well as for possible signs of acute toxicity. The experiment was totally monitored for five days.

[5] = Isothermal titration calorimetry; format: binding; settings: Table S12, ITC, 20 mM HEPES pH 7.5, 20 injections
Protocol: Calorimetric experiments were performed to evaluate the interaction between CL, PE, PG, or LPS and aquicidine L or aquicidine C4. To determine the affinity between aquicidine L or aquicidine C4 and CL, PE, or PG, both 2 mM CL, PE, or PG and 0.2 mM aquicidine L or aquicidine C4 were dissolved in 20 mM HEPES buffer (pH 7.5). To determine the interaction between LPS and aquicidine L or aquicidine C4, 2 mM LPS and 0.2 mM aquicidine L or aquicidine C4 were dissolved in H2O. Sequential injections of CL, PE, PG, or LPS into the calorimetric cell filled with aquicidine L or aquicidine C4 were repeated 20 times with equilibration intervals of 200 s. Data were collected by using a MicroCal PEAQ‐ITC instrument and calculated for the equilibrium dissociation constant (KD), change of enthalpy (ΔH), and change of entropy […].

Escherichia coli DH5α = assay: MIC assay (broth micro-dilution); format: cell-based; settings: Table S11; LB broth, 37 °C, 16 h, n = 2
Procedure, shortened: (§1)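 MIC = lowest peptide concentration with no visible growth; LB broth microdilution, n = 2. Inoculum: overnight culture diluted 5000× (S. aureus 10000×). Peptides serially diluted 2-fold, 64–0.125 µg mL^−1 in the broth added to cells.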

B. subtilis ATCC 23857 = assay: MIC assay (broth micro-dilution); format: cell-based; settings: Table S11; LB broth, 37 °C, 16 h, n = 2
Procedure, shortened: as §1

Row | Structure (SMILES) | bactericidal activity, number of viable cells (S. aureus USA300 [1]) | accumulation of UDP-MurNAc-pentapeptide (S. aureus USA300 [2]) | DiSC3(5) fluorescence (membrane depolarization) (S. aureus USA300 [3]) | inhibition of antibacterial activity by CL and PG (S. aureus USA300 [4]; feeding 2 to 128 µg mL^−1, S. aureus USA300, Figure 5d) | inhibition of antibacterial activity by MK, UQ or PC (S. aureus USA300 [4]) | cell lysis in E. coli (E. coli DH5α) | acute toxicity in mouse (Acute toxicity assay) | Kd ([5]; 2 mM CL into 0.2 mM peptide) | Kd ([5]; 2 mM PE into 0.2 mM peptide) | Kd ([5]; 2 mM PG into 0.2 mM peptide) | MIC Escherichia coli DH5α (Escherichia coli DH5α) | MIC Bacllussubtilis ATCC 23857 (B. subtilis ATCC 23857) | resistant mutants by direct plating (E. coli)
1 | CCCCCCCCCCCCCC(=O)N[C@@H](CN)C(=O)N[C@H](C(=O)N[C@@H](CC(C)C)C(=O)N[C@H]1COC(=O)[C@H](Cc2ccccc2)NC(=O)[C@H](CC(N)=O)NC(=O)[C@H](CCCN)NC(=O)[C@H]([C@@H](C)CC)NC(=O)[C@H](Cc2ccccc2)NC(=O)[C@H](CN)NC(=O)[C@H](CCN)NC1=O)[C@@H](C)O [synAQU5-C4] (Myristoyl-[Dap]TLS[Dab][Dap]FI[Orn]NF; ester 4-C) | decreased the number of viable cells by two orders of magnitude after 5 h | did not show an obvious accumulation | significant increase | stronger dose‐dependent inhibition | did not show dose‐dependent inhibition | slightly led to cell lysis | no obvious acute toxicities | 0.06 µM | 49.3 µM | 0.08 µM | 8 µg/mL (≈ 5.63 µM) | 2 µg/mL (≈ 1.41 µM) | –
2 | CCCCCCCCCCCCCC(=O)N[C@@H](CN)C(=O)N[C@H](C(=O)N[C@@H](CC(C)C)C(=O)N[C@@H](CO)C(=O)N[C@@H](CCN)C(=O)N[C@@H](CN)C(=O)N[C@@H](Cc1ccccc1)C(=O)N[C@H](C(=O)N[C@@H](CCCN)C(=O)N[C@@H](CC(N)=O)C(=O)N[C@@H](Cc1ccccc1)C(=O)O)[C@@H](C)CC)[C@@H](C)O [synAQU5-L] (Myristoyl-[Dap]TLS[Dab][Dap]FI[Orn]NF-OH) | only inhibited the growth of S. aureus USA300 within 2 h | did not show an obvious accumulation | not aquicidine L caused a significant increase | – | did not show dose‐dependent inhibition | significantly led to cell lysis | no obvious acute toxicities | 0.28 µM | 7.88 µM | 0.32 µM | 2 µg/mL (≈ 1.39 µM) | 8 µg/mL (≈ 5.56 µM) | failed to identify E. coli resistant mutants
